# Entries after “also recorded” stand apart in the source; their conditions may differ.
# Legend:
# [1] = target: T1, hyaluronidase of bovine origin (BTH, Bovine Testis hyaluronidase) (Bos taurus, UniProt Q2YDK3); assay: Assay of hyaluronidase activity (residual HA, HA-ELISA); type: biochemical
# T1 sequence (Q2YDK3 1-553): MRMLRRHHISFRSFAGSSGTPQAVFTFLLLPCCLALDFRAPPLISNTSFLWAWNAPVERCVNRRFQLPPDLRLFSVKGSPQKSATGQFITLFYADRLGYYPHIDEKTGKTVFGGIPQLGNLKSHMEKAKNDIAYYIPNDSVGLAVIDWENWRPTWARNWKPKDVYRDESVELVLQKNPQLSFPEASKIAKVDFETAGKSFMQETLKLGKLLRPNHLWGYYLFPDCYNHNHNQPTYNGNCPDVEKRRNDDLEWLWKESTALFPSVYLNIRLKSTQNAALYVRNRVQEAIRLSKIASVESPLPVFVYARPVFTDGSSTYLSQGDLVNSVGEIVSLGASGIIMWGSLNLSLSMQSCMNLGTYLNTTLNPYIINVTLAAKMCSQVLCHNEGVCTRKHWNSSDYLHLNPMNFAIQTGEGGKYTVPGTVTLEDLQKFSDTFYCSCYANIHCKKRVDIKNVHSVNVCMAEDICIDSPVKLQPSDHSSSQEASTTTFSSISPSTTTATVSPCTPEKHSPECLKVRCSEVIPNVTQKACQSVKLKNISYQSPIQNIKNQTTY
# Procedure: Hyaluronidase activity is measured by the assay of residual hyaluronic acid (HA). The substrate is fixed to a carrier then placed in the presence of an enzyme and a quantity of compound to be tested. The residual HA i.e. the non-hydrolyzed HA is assayed using a HA-Elisa detection system: Hyaluronan enzyme-linked immunosorbent assay (Echelon Biosciences®).
# 0.5 units of hyaluronidase of bovine origin (BTH, Bovine Testis hyaluronidase) were pre-incubated at 37° C. with the compound to be tested. This mixture was deposited on the HA fixed to the surface of a microplate well. The enzymatic reaction took place at pH 7.2n at 37° C. Washing was followed by a recognition step of residual HA by hyaluronectin (NH). The quantity of bonded NH was measured by ELISA using an anti-NH antibody conjugated with alkaline phosphatase. The p-nitrophenyl phosphate disodium salt (pnNpp) substrate of the phosphatase allows spectrometric detection at 405 nm. (Delpech B et al., Analytical Biochemistry 149, 555(565 (1985); Robert Stern et al. Analytical Biochemistry 251, 263-269 (1997)). OD intensity was correlated with the quantity of residual HA. The quantity of residual HA is directly linked to enzymatic activity. In the presence of an inhibitor, the larger the quantity of residual HA the more the sample is inhibiting. A percentage inhibition of hyaluronidase will be expressed.
# Therefore the net enzymatic activities were calculated which represent the difference in mean gross activity without enzyme and the gross activity of the enzyme with or without the compound to be tested.
# The percentage enzymatic inhibition related to the compound to be tested was calculated as follows: % inhibition=(Maximum net enzymatic activity)−Net enzymatic activity in the presence of the compound to be tested)/Maximum net enzymatic activity.
# where the maximum net enzymatic activity represents the mean net enzymatic activity of 0.5 U.
# [2] = test system: Human dermal papilla cells; assay: In vitro stimulation of the proliferation of dermal papilla cells (BrdU incorporation); type: cell-based; settings: 12.5 μM; 60 h; best activity
# Procedure: Human dermal papilla cells (Promocell) were placed in culture and held in early passage culture in DMEM medium supplemented with 10% FCS. They were then seeded in a 96-well plate in DMEM medium supplemented with 10% FCS for 12 h. The culture medium was replaced by serum-free DMEM medium then by DMEM supplemented with 1% FCS and molecules 1, 2, 3 and 4 at the different tested concentrations After incubation for 60 h, cell proliferation was evaluated by incorporation of BrdU.
# The diagrams in appended FIG. 1 show the increase in BrdU incorporation and the stimulated cellular proliferation of the cells in the presence of the different molecules (as a percent of the control).
# [3] = 0.5 U BTH, read-out: Enzymatic inhibition (mean as a percentage)
"inhibition at 100 µM [1, 3] [%]","inhibition at 500 µM [1, 3] [%]","inhibition at 5 µM ([1]; 5 μM, 0.5 U BTH, read-out: Enzymatic inhibition (mean as a percentage)) [%]","inhibition at 10 µM ([1]; 10 μM, 0.5 U BTH, read-out: Enzymatic inhibition (mean as a percentage)) [%]","inhibition at 20 µM ([1]; 20 μM, 0.5 U BTH, read-out: Enzymatic inhibition (mean as a percentage)) [%]","inhibition at 25 µM ([1]; 25 μM, 0.5 U BTH, read-out: Enzymatic inhibition (mean as a percentage)) [%]","inhibition at 30 µM ([1]; 30 μM, 0.5 U BTH, read-out: Enzymatic inhibition (mean as a percentage)) [%]","inhibition at 40 µM ([1]; 40 μM, 0.5 U BTH, read-out: Enzymatic inhibition (mean as a percentage)) [%]","inhibition at 50 µM ([1]; 50 μM, 0.5 U BTH, read-out: Enzymatic inhibition (mean as a percentage)) [%]","inhibition at 250 µM ([1]; 250 μM, 0.5 U BTH, read-out: Enzymatic inhibition (mean as a percentage)) [%]",IC50 ([1]; in the region of) [µM],SMILES,Effect on hyaluronidase [1],Proliferation of the cells of the dermal papilla (percent of the control) [2] [%]
1,4,,,,,,,,,,"O=C1O[C@H]([C@@H](O)CO)C(O)=C1O [Ascorbic acid, ascorbic acid]",no effect,
113,122,14,21,44,46,66,86,76,119,25 to 30,"CCCCC/C=C\C/C=C\CCCCCCCC(=O)OC1=C(OC(=O)CCCCCCC/C=C\C/C=C\CCCCC)C(C2COC(C)(C)O2)OC1=O (stereo not shown) [Molecule 1, diactodeca-9,12-dienoate of (9Z,9′Z,12Z,12′Z)-2-(2,2-dimethyl-1,3-dioxolan-4-yl)-5-oxo-2,5-dihydrofuran-3,4-diyl]",strongly inhibit hyaluronidase; also recorded: equivalent to or more active than ascorbyl palmitate,169
